One may read the IC50 as the midpoint of a concentration-inhibition curve. As usually defined, the Ki is a dissociation constant, usually derived from enzyme kinetics or from competition with a known ligand.

In data set [1] the target is T1, Vasoactive intestinal polypeptide receptor 1 (Homo sapiens, UniProt P32241). Further: in other assays of this panel Not Active means under 50% inhibition at 10 µM.
T1 sequence (P32241 whole entry): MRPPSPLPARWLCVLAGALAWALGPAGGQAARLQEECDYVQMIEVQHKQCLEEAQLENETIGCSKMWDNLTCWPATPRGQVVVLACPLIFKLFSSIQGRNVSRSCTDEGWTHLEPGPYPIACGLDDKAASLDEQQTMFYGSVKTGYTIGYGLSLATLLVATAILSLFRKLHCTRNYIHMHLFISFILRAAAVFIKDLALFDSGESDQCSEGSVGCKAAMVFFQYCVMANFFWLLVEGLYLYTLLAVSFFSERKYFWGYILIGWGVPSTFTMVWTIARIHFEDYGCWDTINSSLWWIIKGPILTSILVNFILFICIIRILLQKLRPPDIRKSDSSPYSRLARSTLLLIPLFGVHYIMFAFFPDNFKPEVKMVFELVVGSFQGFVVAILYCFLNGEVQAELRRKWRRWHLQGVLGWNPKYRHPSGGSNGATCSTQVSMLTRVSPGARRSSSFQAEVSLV
Type of data set: cell membranes, Membrane. Conditions: ht-29.

Data set [2] concerns the target Protein kinase C alpha type (Homo sapiens, UniProt P17252). Type of data set: cell-based. Conditions: sf9.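 Further: inhibition of PKCalpha kinase activity measured in an enzyme assay with histone as the phosphorylation substrate; in other assays of this panel Not Active means under 50% inhibition at 10 µM.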
The target of data set [3] is 5-hydroxytryptamine receptor 1B (Rattus norvegicus, UniProt P28564). In kind it is cell membranes, Wistar, Cerebral cortex, Membrane. Further: in other assays of this panel Not Active means under 50% inhibition at 10 µM.
The target of the next data set is T2, Cytochrome P450 1A2 (Homo sapiens, UniProt P05177). Further: in other assays of this panel Not Active means under 50% inhibition at 10 µM.
T2 sequence (P05177 whole entry): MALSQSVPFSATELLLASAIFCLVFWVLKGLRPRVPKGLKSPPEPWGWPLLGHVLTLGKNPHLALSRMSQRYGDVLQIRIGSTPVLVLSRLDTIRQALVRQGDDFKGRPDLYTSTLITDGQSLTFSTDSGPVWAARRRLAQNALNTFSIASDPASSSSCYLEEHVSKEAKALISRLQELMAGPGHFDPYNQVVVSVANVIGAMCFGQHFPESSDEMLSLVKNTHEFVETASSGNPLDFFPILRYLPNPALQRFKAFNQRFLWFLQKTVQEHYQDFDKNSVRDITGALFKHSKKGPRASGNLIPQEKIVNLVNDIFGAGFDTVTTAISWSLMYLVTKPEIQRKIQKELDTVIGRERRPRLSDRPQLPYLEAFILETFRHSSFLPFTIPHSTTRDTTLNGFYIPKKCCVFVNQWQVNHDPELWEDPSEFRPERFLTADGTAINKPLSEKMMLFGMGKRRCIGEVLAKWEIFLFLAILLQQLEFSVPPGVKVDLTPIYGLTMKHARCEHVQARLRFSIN
The conditions noted are these: bti-tn-5b1-4.

Another data set addresses Cytochrome P450 2D6 (Homo sapiens, UniProt P10635). Conditions: bti-tn-5b1-4.
A further data set addresses T3, Glucocorticoid receptor (Homo sapiens, UniProt P04150).
T3 sequence (P04150 whole entry): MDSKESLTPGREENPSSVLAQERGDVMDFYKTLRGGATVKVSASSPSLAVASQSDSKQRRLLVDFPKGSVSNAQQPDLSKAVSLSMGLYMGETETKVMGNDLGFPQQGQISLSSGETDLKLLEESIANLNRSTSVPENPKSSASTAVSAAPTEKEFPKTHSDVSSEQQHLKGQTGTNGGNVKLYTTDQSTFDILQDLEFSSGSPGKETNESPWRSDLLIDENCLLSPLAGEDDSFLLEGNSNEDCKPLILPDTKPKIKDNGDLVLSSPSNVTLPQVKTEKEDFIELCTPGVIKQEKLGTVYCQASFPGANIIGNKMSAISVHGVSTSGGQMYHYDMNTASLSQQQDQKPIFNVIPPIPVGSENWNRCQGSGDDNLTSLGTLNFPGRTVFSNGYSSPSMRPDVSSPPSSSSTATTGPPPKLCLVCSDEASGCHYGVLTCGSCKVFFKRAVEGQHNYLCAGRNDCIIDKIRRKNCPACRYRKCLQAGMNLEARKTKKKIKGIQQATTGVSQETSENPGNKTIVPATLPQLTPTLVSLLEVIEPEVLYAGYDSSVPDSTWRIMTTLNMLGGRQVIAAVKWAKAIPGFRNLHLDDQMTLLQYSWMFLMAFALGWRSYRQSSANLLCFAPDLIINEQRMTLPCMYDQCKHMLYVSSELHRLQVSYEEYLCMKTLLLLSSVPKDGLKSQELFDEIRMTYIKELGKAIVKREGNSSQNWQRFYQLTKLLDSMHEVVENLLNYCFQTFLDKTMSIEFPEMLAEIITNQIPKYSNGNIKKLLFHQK
The conditions noted are these: hela s3.

The target in data set [4] is 5-hydroxytryptamine receptor 2B (Homo sapiens, UniProt P41595). In kind it is cell membranes, CHO-K1, Membrane. Further: in other assays of this panel Not Active means under 50% inhibition at 10 µM.
Data set [5] concerns the target Voltage-gated inwardly rectifying potassium channel KCNH2 (Homo sapiens, UniProt Q12809). The conditions noted are these: hek293. Further: in other assays of this panel Not Active means under 50% inhibition at 10 µM.
Data set [6] addresses T4, Alpha-2C adrenergic receptor (Homo sapiens, UniProt P18825).
T4 sequence (P18825 whole entry): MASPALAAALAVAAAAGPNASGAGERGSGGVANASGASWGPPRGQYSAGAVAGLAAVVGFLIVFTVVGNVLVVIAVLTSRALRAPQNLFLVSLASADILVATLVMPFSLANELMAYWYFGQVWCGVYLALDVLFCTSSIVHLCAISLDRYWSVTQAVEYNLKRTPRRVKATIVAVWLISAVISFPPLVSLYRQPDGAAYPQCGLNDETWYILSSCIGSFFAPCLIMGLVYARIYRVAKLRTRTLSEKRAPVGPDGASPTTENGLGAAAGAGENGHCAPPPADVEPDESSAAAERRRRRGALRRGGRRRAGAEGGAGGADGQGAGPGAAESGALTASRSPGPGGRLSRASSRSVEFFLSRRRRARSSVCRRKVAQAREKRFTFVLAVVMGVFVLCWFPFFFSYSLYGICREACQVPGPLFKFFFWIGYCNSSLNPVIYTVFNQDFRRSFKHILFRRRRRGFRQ
The data set is described as follows: DRUGMATRIX: Adrenergic Alpha-2C radioligand binding (ligand: [3H] MK-912). Type of data set: cell membranes, Sf9, Membrane.

A further data set deals with D(1A) dopamine receptor (Homo sapiens, UniProt P21728). Description: DRUGMATRIX: Dopamine D1 radioligand binding (ligand: [3H] SCH-23390). In kind it is cell membranes, CHO, Membrane. Conditions: cho; Not Active = under 50% inhibition at 10 µM.
The nature of data set [7]: DRUGMATRIX: Nicotinic Acetylcholine radioligand binding (ligand: [125I] Epibatidine). Type of data set: cell membranes, Membrane. The conditions noted are these: imr-32; Not Active = under 50% inhibition at 10 µM.
The nature of data set [8]: DRUGMATRIX: Phosphodiesterase PDE3 enzyme inhibition (substrate: [3H]cAMP + cAMP). The conditions noted are these: platelet; Not Active = under 50% inhibition at 10 µM. Type of data set: tissue-based, Homo sapiens.

Voltage-gated inwardly rectifying potassium channel KCNH2, sequence (Q12809 whole entry): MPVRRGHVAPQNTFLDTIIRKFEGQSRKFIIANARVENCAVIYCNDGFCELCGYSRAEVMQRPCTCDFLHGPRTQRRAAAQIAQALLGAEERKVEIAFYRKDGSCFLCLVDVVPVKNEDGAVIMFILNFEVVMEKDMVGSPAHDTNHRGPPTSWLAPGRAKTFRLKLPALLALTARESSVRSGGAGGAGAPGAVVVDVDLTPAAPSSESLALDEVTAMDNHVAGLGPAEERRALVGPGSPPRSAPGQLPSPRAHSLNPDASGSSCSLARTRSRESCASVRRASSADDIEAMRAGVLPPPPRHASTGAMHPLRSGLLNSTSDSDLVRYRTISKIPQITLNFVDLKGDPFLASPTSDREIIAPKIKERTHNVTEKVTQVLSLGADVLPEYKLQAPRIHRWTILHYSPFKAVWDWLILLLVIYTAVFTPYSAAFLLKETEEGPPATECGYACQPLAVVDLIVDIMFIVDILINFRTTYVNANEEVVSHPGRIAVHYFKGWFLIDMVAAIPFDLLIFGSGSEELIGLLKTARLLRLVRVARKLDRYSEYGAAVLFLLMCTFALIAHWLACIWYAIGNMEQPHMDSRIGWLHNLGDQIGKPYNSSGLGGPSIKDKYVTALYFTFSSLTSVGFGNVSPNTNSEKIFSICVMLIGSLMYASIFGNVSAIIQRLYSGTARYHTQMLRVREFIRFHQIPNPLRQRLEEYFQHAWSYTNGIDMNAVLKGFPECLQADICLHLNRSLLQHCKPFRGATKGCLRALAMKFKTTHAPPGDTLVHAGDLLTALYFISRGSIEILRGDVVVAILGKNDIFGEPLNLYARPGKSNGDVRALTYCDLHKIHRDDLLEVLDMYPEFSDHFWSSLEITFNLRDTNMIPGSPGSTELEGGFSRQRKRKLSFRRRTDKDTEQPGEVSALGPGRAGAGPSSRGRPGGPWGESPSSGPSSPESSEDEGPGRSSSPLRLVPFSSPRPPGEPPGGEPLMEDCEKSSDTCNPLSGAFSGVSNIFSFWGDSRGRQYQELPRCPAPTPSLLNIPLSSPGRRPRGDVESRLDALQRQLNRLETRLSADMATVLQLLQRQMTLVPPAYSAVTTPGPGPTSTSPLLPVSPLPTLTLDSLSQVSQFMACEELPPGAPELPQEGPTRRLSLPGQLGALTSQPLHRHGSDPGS
Cytochrome P450 2D6, sequence (P10635 whole entry): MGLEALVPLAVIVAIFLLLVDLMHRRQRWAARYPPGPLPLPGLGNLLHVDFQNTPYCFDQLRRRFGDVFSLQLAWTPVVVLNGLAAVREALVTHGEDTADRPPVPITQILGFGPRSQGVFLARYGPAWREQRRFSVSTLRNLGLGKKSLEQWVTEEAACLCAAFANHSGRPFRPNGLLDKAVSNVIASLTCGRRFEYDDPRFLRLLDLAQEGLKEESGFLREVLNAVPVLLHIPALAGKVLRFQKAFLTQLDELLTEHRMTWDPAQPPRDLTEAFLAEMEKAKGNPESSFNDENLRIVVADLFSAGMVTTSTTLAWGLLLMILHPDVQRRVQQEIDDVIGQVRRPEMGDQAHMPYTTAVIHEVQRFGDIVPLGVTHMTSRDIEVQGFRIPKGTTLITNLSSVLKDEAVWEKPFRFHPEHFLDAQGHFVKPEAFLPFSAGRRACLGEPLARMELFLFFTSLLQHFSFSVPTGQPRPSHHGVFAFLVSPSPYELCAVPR
5-hydroxytryptamine receptor 1B, sequence (P28564 whole entry): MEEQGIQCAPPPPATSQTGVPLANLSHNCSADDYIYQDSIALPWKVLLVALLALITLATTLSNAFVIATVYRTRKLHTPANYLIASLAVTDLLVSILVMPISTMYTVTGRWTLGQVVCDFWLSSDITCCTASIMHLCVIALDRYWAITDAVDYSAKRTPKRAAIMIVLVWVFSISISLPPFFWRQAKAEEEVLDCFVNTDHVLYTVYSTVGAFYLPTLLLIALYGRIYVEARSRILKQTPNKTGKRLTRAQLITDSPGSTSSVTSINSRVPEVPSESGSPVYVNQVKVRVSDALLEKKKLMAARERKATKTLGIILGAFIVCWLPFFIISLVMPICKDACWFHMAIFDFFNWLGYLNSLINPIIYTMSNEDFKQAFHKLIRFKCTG
5-hydroxytryptamine receptor 2B, sequence (P41595 whole entry): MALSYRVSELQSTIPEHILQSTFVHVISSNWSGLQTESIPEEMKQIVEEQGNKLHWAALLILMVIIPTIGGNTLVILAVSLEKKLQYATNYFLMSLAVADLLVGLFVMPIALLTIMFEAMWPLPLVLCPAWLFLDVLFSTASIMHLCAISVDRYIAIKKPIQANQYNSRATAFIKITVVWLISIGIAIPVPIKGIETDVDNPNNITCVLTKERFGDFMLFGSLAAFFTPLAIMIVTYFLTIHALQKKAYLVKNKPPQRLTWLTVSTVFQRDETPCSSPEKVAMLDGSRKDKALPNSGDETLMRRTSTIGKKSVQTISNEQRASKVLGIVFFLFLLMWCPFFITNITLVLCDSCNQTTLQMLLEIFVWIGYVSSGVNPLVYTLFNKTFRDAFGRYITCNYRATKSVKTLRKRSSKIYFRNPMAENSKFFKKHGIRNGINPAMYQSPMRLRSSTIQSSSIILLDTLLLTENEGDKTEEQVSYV
D(1A) dopamine receptor, sequence (P21728 whole entry): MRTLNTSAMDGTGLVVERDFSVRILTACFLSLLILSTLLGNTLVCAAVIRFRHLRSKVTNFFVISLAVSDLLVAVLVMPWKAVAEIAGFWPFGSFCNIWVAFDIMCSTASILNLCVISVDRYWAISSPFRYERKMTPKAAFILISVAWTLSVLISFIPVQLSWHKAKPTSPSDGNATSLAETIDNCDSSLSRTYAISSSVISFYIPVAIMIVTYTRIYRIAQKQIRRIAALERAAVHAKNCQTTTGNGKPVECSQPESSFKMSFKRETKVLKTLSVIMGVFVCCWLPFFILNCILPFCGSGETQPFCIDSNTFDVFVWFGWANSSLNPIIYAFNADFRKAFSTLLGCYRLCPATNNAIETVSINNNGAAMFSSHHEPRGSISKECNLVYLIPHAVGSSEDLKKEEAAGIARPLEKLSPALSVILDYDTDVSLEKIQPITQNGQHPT

For the molecule `COc1ccc(CCN2CCC(Nc3nc4ccccc4n3Cc3ccc(F)cc3)CC2)cc1` [ASTEMIZOLE], the IC50 entry is “Not Active” in data set [1]; “Not Active” in data set [2]; 1390 nM in [3] (read-out: IC50); “Not Active” against Cytochrome P450 1A2; “Not Active” on Cytochrome P450 2D6; “Not Active” against Glucocorticoid receptor. Also, the Ki was 630 nM in data set [3] (read-out: Ki), “Not Active” at Cytochrome P450 1A2 and “Not Active” at Cytochrome P450 2D6.

As to `CN(C)CCCN1c2ccccc2CCc2ccc(Cl)cc21` [CLOMIPRAMINE], the 50% inhibitory concentration (IC50) in [4] (read-out: IC50) is 239 nM; in [1], “Not Active”; in data set [2], “Not Active”; in [3] it was “Not Active”; on Cytochrome P450 1A2 it was “Not Active”; against Glucocorticoid receptor, “Not Active”. In addition, in data set [5], the IC50 entry was “Not Active”. The Ki in data set [4] (read-out: Ki) is 152 nM; at Cytochrome P450 1A2, “Not Active”; in data set [5], “Not Active”.

`O=C(CCCN1CCC(O)(c2ccc(Cl)cc2)CC1)c1ccc(F)cc1` [HALOPERIDOL]: the IC50 result (in data set [1]; in data set [2]; in data set [3]; at Cytochrome P450 1A2; at Cytochrome P450 2D6; on Glucocorticoid receptor) was “Not Active” in each case. The IC50 result in data set [5] is “Not Active”. Besides, the Ki entry (at Cytochrome P450 1A2; at Cytochrome P450 2D6; in [5]) was “Not Active” throughout.

For the molecule `CN1CCN2c3ccccc3Cc3ccccc3C2C1` (stereo not drawn) [MIANSERIN], the IC50 was 179 nM in data set [6] (read-out: IC50); “Not Active” in data set [1]; “Not Active” in data set [2]; “Not Active” in [3]; “Not Active” against Cytochrome P450 2D6; “Not Active” on Glucocorticoid receptor. Besides, the IC50 entry in [5] is given as “Not Active”. The Ki is 26 nM in [6] (read-out: Ki), “Not Active” on Cytochrome P450 2D6 and “Not Active” in data set [5].

As to `O=C1c2c(O)ccc(O)c2C(=O)c2c(NCCNCCO)ccc(NCCNCCO)c21` [MITOXANTRONE], the IC50 result (in data set [6] (sf9); in data set [4] (cho-k1); in data set [1]; at D(1A) dopamine receptor; in data set [7]; in [8]) was “Not Active” each time. The IC50 entry (in data set [2]; in [3]; against Glucocorticoid receptor) was “Not Active” each time. In addition, the Ki result in [7] and in data set [8] was “Not Active” each time.

In the case of `CC(C)(O)c1ccccc1CC[C@@H](SCC1(CC(=O)O)CC1)c1cccc(/C=C/c2ccc3ccc(Cl)cc3n2)c1` [MONTELUKAST], the IC50 result (in data set [1]; in data set [2]; in data set [3]; at Cytochrome P450 1A2; against Cytochrome P450 2D6; on Glucocorticoid receptor) was “Not Active” each time. Moreover, in data set [5], the IC50 entry is “Not Active”. In addition, the Ki entry (on Cytochrome P450 1A2; on Cytochrome P450 2D6; in [5]) was “Not Active” each time.

Take `CSc1ccc2c(c1)N(CCC1CCCCN1C)c1ccccc1S2` (stereo not drawn) [THIORIDAZINE]: the IC50 entry (in [1]; in [2]; in [3]; on Glucocorticoid receptor) was “Not Active” each time.

As to `COc1cccc(C2(O)CCCCC2CN(C)C)c1` (stereo not drawn) [TRAMADOL], the IC50 result (in [6] (sf9); in data set [4] (cho-k1); in data set [1]; in data set [2]; in data set [3]; at Cytochrome P450 1A2) was “Not Active” each time. Besides, the IC50 entry (against Cytochrome P450 2D6; against Glucocorticoid receptor; in data set [5]) was “Not Active” each time. The Ki result (on Cytochrome P450 1A2; at Cytochrome P450 2D6; in data set [5]) was “Not Active” throughout.

For `CN1[C@@H]2CC[C@H]1C[C@@H](OC(=O)c1c[nH]c3ccccc13)C2` [TROPISETRON], the IC50 entry (in data set [6] (sf9); in data set [4] (cho-k1); in [1]; at D(1A) dopamine receptor; in data set [7]; in [8]) was “Not Active” each time. Besides, the IC50 entry (in data set [2]; in [3]; against Cytochrome P450 1A2; against Cytochrome P450 2D6; in [5]) was “Not Active” throughout. Moreover, the Ki entry (in [7]; in data set [8]; at Cytochrome P450 1A2; on Cytochrome P450 2D6; in data set [5]) was “Not Active” throughout.

Take `COc1ccc(C(CN(C)C)C2(O)CCCCC2)cc1` (stereo not drawn) [VENLAFAXINE]: the IC50 entry (in [6] (sf9); in data set [4] (cho-k1); in data set [1]; on D(1A) dopamine receptor; in data set [7]; in data set [8]) was “Not Active” each time. The IC50 entry (in data set [2]; in [3]; at Cytochrome P450 1A2; at Cytochrome P450 2D6; in data set [5]) was “Not Active” each time. The Ki entry (in data set [7]; in [8]; at Cytochrome P450 1A2; at Cytochrome P450 2D6; in data set [5]) was “Not Active” in each case.
